Reference: patent US10538498B2, “1,3,4-oxadiazole sulfonamide derivative compounds as histone deacetylase 6 inhibitor, and the pharmaceutical composition comprising the same” (Chong Kun Dang Pharmaceutical Corp., priority 2015, dated 2020)

Biological target: T1, human recombinant HDAC6 (Homo sapiens, UniProt Q9UBN7)
T1 construct: purchased Calbiochem 382180
T1 sequence (Q9UBN7 1-1215): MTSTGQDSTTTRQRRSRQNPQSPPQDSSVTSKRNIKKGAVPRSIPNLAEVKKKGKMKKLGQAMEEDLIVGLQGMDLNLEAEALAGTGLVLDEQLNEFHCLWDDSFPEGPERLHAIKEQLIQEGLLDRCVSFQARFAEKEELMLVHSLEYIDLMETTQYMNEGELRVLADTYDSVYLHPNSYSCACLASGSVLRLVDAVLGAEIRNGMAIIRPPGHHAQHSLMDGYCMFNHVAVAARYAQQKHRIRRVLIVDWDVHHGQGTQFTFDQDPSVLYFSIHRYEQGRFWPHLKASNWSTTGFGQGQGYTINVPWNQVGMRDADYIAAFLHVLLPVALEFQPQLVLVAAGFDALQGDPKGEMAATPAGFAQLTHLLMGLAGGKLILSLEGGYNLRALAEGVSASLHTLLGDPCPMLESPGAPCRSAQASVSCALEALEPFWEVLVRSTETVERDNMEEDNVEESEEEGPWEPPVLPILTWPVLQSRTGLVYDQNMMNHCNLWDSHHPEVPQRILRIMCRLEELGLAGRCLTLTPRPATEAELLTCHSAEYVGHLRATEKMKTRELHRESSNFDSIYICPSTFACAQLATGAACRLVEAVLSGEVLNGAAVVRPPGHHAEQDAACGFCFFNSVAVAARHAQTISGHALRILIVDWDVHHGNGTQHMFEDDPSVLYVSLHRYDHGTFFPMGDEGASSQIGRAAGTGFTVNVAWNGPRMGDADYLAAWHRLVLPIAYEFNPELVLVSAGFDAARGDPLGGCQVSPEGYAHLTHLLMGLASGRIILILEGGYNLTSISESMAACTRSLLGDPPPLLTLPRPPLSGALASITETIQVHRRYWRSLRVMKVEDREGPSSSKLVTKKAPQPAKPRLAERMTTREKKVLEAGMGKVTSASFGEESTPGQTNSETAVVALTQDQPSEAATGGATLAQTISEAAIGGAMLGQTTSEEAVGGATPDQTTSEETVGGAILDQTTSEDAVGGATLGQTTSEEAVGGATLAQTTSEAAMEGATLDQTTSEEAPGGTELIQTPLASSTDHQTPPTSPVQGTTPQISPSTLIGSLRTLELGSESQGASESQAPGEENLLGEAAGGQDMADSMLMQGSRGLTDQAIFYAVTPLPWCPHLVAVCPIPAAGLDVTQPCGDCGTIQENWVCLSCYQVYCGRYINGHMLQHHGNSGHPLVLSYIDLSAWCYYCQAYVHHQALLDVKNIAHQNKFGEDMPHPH
Assay: HDAC6 enzyme activity inhibition assay (HDAC Fluorimetric Drug Discovery Kit)
Assay type: biochemical
Conditions: for HDAC6 selectivity (fold): HDAC1 vs HDAC6; for IC50: same protocol as the HDAC1 enzyme activity test
Method: In order to examine the HDAC6 selectivity of the compounds of formula I of the present invention by HDAC1 and HDAC6 enzymatic activity inhibition assays, an experiment was performed using a conventional substance as a control.
HDAC enzyme activity was measured using a HDAC Fluorimetric Drug Discovery Kit (BML-AK511, 516, Enzo Life Science). For the HDAC1 enzyme activity test, human recombinant HDAC1 (BML-SE456) was used as an enzyme source, and Fluor de Lys®-“SIRT1 (BNL-KI177) was used as a substrate. A 5-fold dilution of the compound was seeded into a 96-well plate, and then 0.3 μg of the enzyme and 10 μM of the substrate were added to each well of the plate and allowed to react at 30° C. for 60 minutes. Then, Fluor de Lys®-Developer II (BML-KI176) was added thereto and allowed to react for 30 minutes, after which the fluorescence value (Ex 360, Em 460) was measured using a multi-plate reader (Flexstation 3, Molecular Device). The HDAC6 enzyme was tested using human recombinant HDAC6 (382180) (Calbiochem) according to the same protocol as the HDAC1 enzyme activity test method. Based on the resulting values, each IC50 value was calculated using GraphPad Prism4.0 program.

Row | HDAC6 selectivity (fold) | IC50 [nM] | Compound
1 | 2564 | 39 | O=S(=O)(c1cccnc1)N(Cc1ccc(-c2nnc(C(F)F)o2)cc1F)c1ccccc1 [Compound 11252, N-(4-(5-(difluoromethyl)-1,3,4-oxadiazol-2-yl)-2-fluorobenzyl)-N-phenylpyridine-3-sulfonamide]
2 | 150 | 666 | O=S(=O)(c1cccnc1)N(Cc1ccc(-c2nnc(C(F)(F)F)o2)cc1F)c1cccc(C(F)(F)F)n1 [Compound 11253, N-(2-fluoro-4-(5-(trifluoromethyl)-1,3,4-oxadiazol-2-yl)benzyl)-N-(6-(trifluoromethyl)pyridin-2-yl)pyridine-3-sulfonamide]
3 | 3448 | 29 | CC(=O)c1cccc(N(Cc2ccc(-c3nnc(C(F)F)o3)cc2F)S(C)(=O)=O)c1 [Compound 11254, N-(3-acetylphenyl)-N-(4-(5-(difluoromethyl)-1,3,4-oxadiazol-2-yl)-2-fluorobenzyl)methanesulfonamide]
4 | 2128 | 47 | O=S1(=O)CCC(S(=O)(=O)N(Cc2ccc(-c3nnc(C(F)(F)F)o3)cc2F)c2cccc(F)c2)CC1 [Compound 11255, N-(2-fluoro-4-(5-(trifluoromethyl)-1,3,4-oxadiazol-2-yl)benzyl)-N-(3-fluorophenyl)tetrahydro-2H-thiopyran-4-sulfonamide 1,1-dioxide]
5 | 7692 | 13 | O=S1(=O)CCC(S(=O)(=O)N(Cc2ccc(-c3nnc(C(F)F)o3)cc2F)c2cccc(F)c2)CC1 [Compound 11256, N-(4-(5-(difluoromethyl)-1,3,4-oxadiazol-2-yl)-2-fluorobenzyl)-N-(3-fluorophenyl)tetrahydro-2H-thiopyran-4-sulfonamide 1,1-dioxide]
6 | 775 | 129 | CS(=O)(=O)N(Cc1ccc(-c2nnc(C(F)(F)F)o2)cc1F)c1ccc(Cl)cc1 [Compound 11271, N-(4-chlorophenyl)-N-(2-fluoro-4-(5-(trifluoromethyl)-1,3,4-oxadiazol-2-yl)benzyl)methanesulfonamide]
7 | 1961 | 51 | CS(=O)(=O)N(Cc1ccc(-c2nnc(C(F)(F)F)o2)cc1F)c1cncc(F)c1 [Compound 11272, N-(2-fluoro-4-(5-(trifluoromethyl)-1,3,4-oxadiazol-2-yl)benzyl)-N-(5-fluoropyridin-3-yl)methanesulfonamide]
8 | 1266 | 79 | CS(=O)(=O)N(Cc1ccc(-c2nnc(C(F)(F)F)o2)cc1F)c1ccccc1F [Compound 11273, N-(2-fluoro-4-(5-(trifluoromethyl)-1,3,4-oxadiazol-2-yl)benzyl)-N-(2-fluorophenyl)methanesulfonamide]
9 | 2439 | 41 | CS(=O)(=O)N(Cc1ccc(-c2nnc(C(F)F)o2)cc1F)c1ccccc1F [Compound 11274]
10 | 1370 | 73 | CS(=O)(=O)N(Cc1ccc(-c2nnc(C(F)(F)F)o2)cc1F)c1ccc(F)cc1 [Compound 11275, N-(2-fluoro-4-(5-(trifluoromethyl)-1,3,4-oxadiazol-2-yl)benzyl)-N-(4-fluorophenyl)methanesulfonamide]
11 | 4000 | 25 | CS(=O)(=O)N(Cc1ccc(-c2nnc(C(F)F)o2)cc1F)c1ccc(F)cc1 [Compound 11276, N-(4-(5-(difluoromethyl)-1,3,4-oxadiazol-2-yl)-2-fluorobenzyl)-N-(4-fluorophenyl)methanesulfonamide]
12 | 535 | 187 | CS(=O)(=O)N(Cc1ccc(-c2nnc(C(F)(F)F)o2)cc1F)c1ccc(Br)cc1 [Compound 11277, N-(4-bromophenyl)-N-(2-fluoro-4-(5-(trifluoromethyl)-1,3,4-oxadiazol-2-yl)benzyl)methanesulfonamide]
13 | 1923 | 52 | CS(=O)(=O)N(Cc1ccc(-c2nnc(C(F)F)o2)cc1F)c1ccc(Br)cc1 [Compound 11278, N-(4-bromophenyl)-N-(4-(5-(difluoromethyl)-1,3,4-oxadiazol-2-yl)-2-fluorobenzyl)methanesulfonamide]
14 | 901 | 111 | CS(=O)(=O)N(Cc1ccc(-c2nnc(C(F)(F)F)o2)cc1F)c1ccccc1Cl [Compound 11279, N-(2-chlorophenyl)-N-(2-fluoro-4-(5-(trifluoromethyl)-1,3,4-oxadiazol-2-yl)benzyl)methanesulfonamide]
15 | 1266 | 79 | CS(=O)(=O)N(Cc1ccc(-c2nnc(C(F)F)o2)cc1F)c1ccccc1Cl [Compound 11280, N-(2-chlorophenyl)-N-(4-(5-(difluoromethyl)-1,3,4-oxadiazol-2-yl)-2-fluorobenzyl)methanesulfonamide]
16 | 2273 | 44 | CS(=O)(=O)N(Cc1ccc(-c2nnc(C(F)F)o2)cc1F)c1ccc(Cl)cc1 [Compound 11281, N-(4-chlorophenyl)-N-(4-(5-(difluoromethyl)-1,3,4-oxadiazol-2-yl)-2-fluorobenzyl)methanesulfonamide]
17 | 781 | 128 | Cc1ccc(N(Cc2ccc(-c3nnc(C(F)(F)F)o3)cc2F)S(C)(=O)=O)cc1 [Compound 11282, N-(2-fluoro-4-(5-(trifluoromethyl)-1,3,4-oxadiazol-2-yl)benzyl)-N-(p-tolyl)methanesulfonamide]
18 | 1852 | 54 | Cc1ccc(N(Cc2ccc(-c3nnc(C(F)F)o3)cc2F)S(C)(=O)=O)cc1 [Compound 11283, N-(4-(5-(difluoromethyl)-1,3,4-oxadiazol-2-yl)-2-fluorobenzyl)-N-(p-tolyl)methanesulfonamide]
19 | 3704 | 27 | CS(=O)(=O)N(Cc1ccc(-c2nnc(C(F)F)o2)cc1F)c1cncc(F)c1 [Compound 11284, N-(4-(5-(difluoromethyl)-1,3,4-oxadiazol-2-yl)-2-fluorobenzyl)-N-(5-fluoropyridin-3-yl)methanesulfonamide]
20 | 3448 | 29 | COC(=O)CCS(=O)(=O)N(Cc1ccc(-c2nnc(C(F)F)o2)cc1F)c1ccccc1 [Compound 11287, methyl 3-(N-(4-(5-(difluoromethyl)-1,3,4-oxadiazol-2-yl)-2-fluorobenzyl)-N-phenylsulfamoyl)propanoate]
21 | 2128 | 47 | COCC(C)CS(=O)(=O)N(Cc1ccc(-c2nnc(C(F)F)o2)cc1F)c1ccccc1 (stereo not drawn) [Compound 11288]
22 | 3571 | 28 | CCCS(=O)(=O)N(Cc1ccc(-c2nnc(C(F)F)o2)cc1F)c1ccccc1 [Compound 11289, N-(4-(5-(difluoromethyl)-1,3,4-oxadiazol-2-yl)-2-fluorobenzyl)-N-phenylpropane-1-sulfonamide]
23 | 2041 | 49 | CCCCS(=O)(=O)N(Cc1ccc(-c2nnc(C(F)F)o2)cc1F)c1ccccc1 [Compound 11290, N-(4-(5-(difluoromethyl)-1,3,4-oxadiazol-2-yl)-2-fluorobenzyl)-N-phenylbutane-1-sulfonamide]
24 | 3226 | 31 | O=S(=O)(C1CC1)N(Cc1ccc(-c2nnc(C(F)F)o2)cc1F)c1ccccc1 [Compound 11291, N-(4-(5-(difluoromethyl)-1,3,4-oxadiazol-2-yl)-2-fluorobenzyl)-N-phenylcyclopropanesulfonamide]
